The source of these data is patent publication US8324261B2, “Histidine derivatives” (Nippon Zoki Pharmaceutical Co., Ltd., priority 2007, dated 2012).

Where two headings read alike, the source gives them in different places.

One series deals with SART stressed mouse. As to the kind of experiment: Test for analgesic effect (1): SART stressed mouse, modified Randall-Selitto tail pressure method. Type of series: in vivo, mice.
Another series concerns Chung model rat. As to the kind of experiment: Test for analgesic effect (2)/(3): Chung model rat, mechanical allodynia by von Frey filament. The class given is in vivo, rats. Here is the method: A test for analgesic effect was conducted using a Chung model rat which is a neuropathic pain model. As to the test animal, male rats of Wistar strain of nine weeks age were used and model rats were prepared in accordance with the method of Kim and Chung (Pain, vol. 50, pages 355 to 363, 1992). Thus, under anesthetization with pentobarbital (40 mg/kg, intraperitoneal administration), rat L5 spinal nerve was exposed and L5 dorsal root ganglion periphery side was strongly ligated using 5-0 silk yarn. The animals were placed in a transparent acrylate cage whose bottom was made of wire net, a 50% reaction threshold value was calculated by an up-down method using a von Frey filament (manufactured by North Coast Medical Inc.) according to the methods of Chaplan, et al. (J. Neurosci. Method, vol. 53, pages 55 to 63, 1994) and by Lee, et al. (J. Neurophysiol., vol. 81, pages 2226 to 2233, 1999) and measurement of allodynia was conducted. Before injury of spinal nerve, the 50% reaction threshold value was measured twice and the animals where the threshold value was outside the standard were excluded from the operation for spinal nerve injury. […] Those test animals were made into groups of seven animals so that the mean value of 50% reaction threshold after 28 days from the nerve injury as an index became nearly the same in each group.
The carboxylic acid type of the compounds of the present invention as a test substance was intraperitoneally administered in a single dose while, a 0.5% CMC-Na/physiological saline solution was administered similarly to a nerve injury control group. After 30 minutes from the administration of the test substance, allodynia was measured to calculate a 50% reaction threshold value. With regard to a significance test, Paired t-test was conducted for comparison between before and after the nerve injury and Dunnett's multiple comparison test was used for comparison among multiple groups of the nerve injury control group and the test substance administration group.
According to the same manner as in the above Test for Analgesic Effect (2), each of Compound 12 of the present invention (3 mg/kg, 10 mg/kg) and Carboxylic acid substance A of the compound of the present invention (10 mg/kg) was orally administered in a single dose as the test substance to Chung model rats. Allodynia after 0, 15, 30, 60 and 120 minutes from the administration was measured for each of the test substance administration group and the nerve injury control group whereupon a 50% reaction threshold value was calculated.

Series [1] concerns mice. As to the kind of experiment: Single dose toxicity test by administration to mice. The class given is in vivo. To be noted: intraperitoneal 250, 500 and 1,000 mg/kg; 14 days. Here is the method:
A single dose toxicity test by intraperitoneal administration of the carboxylic acid type of the compounds of the present invention to mice was carried out. Male mice of ddY strain of four weeks age were made into groups of five mice so as to make mean body weight in each group nearly the same. Carboxylic acid type A as a test substance was intraperitoneally administered at the doses of 250 mg/kg, 500 mg/kg and 1,000 mg/kg.

The test system of series [2] is mice. As to the kind of experiment: Test for analgesic effect (4): acetic acid writhing test. The class given is in vivo. To be noted: oral single dose; 0.7% acetic acid i.p. 25 minutes after; writhing numbers during 10 minutes. Here is the method:
The compounds of the present invention or the carboxylic acid type thereof were orally administered to mice and a test for an analgesic effect was carried out by means of an acetic acid writhing test. As to the test animals, male mice of ddY strain of four weeks age were subjected to a preliminary breeding and they were used where one group comprised ten mice. Each of the compound of the present invention or the carboxylic acid type thereof as a test substance was orally administered in a single dose while, to a control group, distilled water (water for injection) was administered similarly. After 25 minutes from the administration of the test substance, a 0.7% acetic acid/physiological saline was intraperitoneally administered at the dose of 10 mL/kg. From 5 minutes thereafter, writhing numbers during 10 minutes were counted and a suppressive rate for each mouse was calculated according to the following formula. Suppressive Rate (%)=[(Mean writhing numbers of the control group)−(Writhing numbers of each mouse)]÷[Mean writhing numbers of the control group]×100
(In general: In writhing tests, fewer writhes than in controls are read as antinociception.)

On the set-up of series [3]: species or system cynomolgus monkeys. To be noted: cynomolgus monkey, in vivo, 30 mg/kg. Here is the method:
Each of the compound of the present invention and Carboxylic acid type A thereof dissolved or suspended in a hydrochloric acid solution was diluted with water. […] At the stages of before the administration and of 0.25, 0.5, 1, 2, 4, 8 and 24 hour(s) after the administration, the blood was collected from femoral vein using a syringe to which heparin was added followed by subjecting to centrifugation to collect the plasma. Collection of the blood was conducted for three times in total where one collection was done with each blank term of six days for each test substance. Concentration of Carboxylic acid type A in each of the collected plasma samples was quantified by an LC-MS and Cmax (maximum drug concentration in plasma) and AUC (area under blood concentration time curve; 0 to ∞ hour(s)) of the compound of the present invention and Carboxylic acid type A thereof were calculated.

In series [4] the test system is rats. Nature of the series: Hyperalgesia in osteoarthritis model induced by monoiodoacetic acid into joints of rats. Type of series: in vivo. As to conditions: oral administration of 1 mg/kg.
Series [5] in a line: Test of kinetics in blood of rats. Type of series: in vivo. To be noted: rat, in vivo, po, 10 mg/kg. Here is the method: Each of the compound of the present invention and the carboxylic acid type A thereof was dissolved in DMSO, diluted with water. A sample solution (1% DMSO solution) made into 2 mg/mL was orally administered in a single dose to the fasted Wistar strain SPF male rats of seven weeks age using a stomach tube (10 mg/5 mL/kg). At the stages of 0.25, 0.5, 1, 2, 4 and 8 hour(s) after the administration, about 150 μL of the blood was collected from tail vein using a capillary to which heparin was added and said capillary was centrifuged to collect the plasma. Protein was removed from the plasma sample and the supernatant liquid was diluted to prepare each sample solution for the measurement.

The test system of series [6] is rats. Nature of the series: Formalin pain test for rats, second phase. Type of series: in vivo. To be noted: oral administration of 100 mg/kg.
The mark [7] stands for this setting: intraperitoneally administered 100 μg/kg to mice.

A word on the AUC: it is the area under the concentration-time curve, a measure of exposure. A high value points to more exposure. Usually Cmax stands for the peak of the concentration-time curve.

As to `C=CC(=O)N[C@@H](Cc1cncn1C)C(=O)O` [Carboxylic acid type A, N^α-acryloyl-N^π-methyl-L-histidine], in the series on SART stressed mouse (25 ng per mouse into the lateral ventricle, 30 minutes after administration, pain threshold of test group divided by that of SART control group, 1.0 = no effect), the Analgesic coefficient is listed as 1.33. In the series on SART stressed mouse (setting [7]), this compound gave an Analgesic coefficient of 1.24 and a pain threshold value of 97.8 g. Moreover, the analgesic action entry with SART stressed mouse (oral administration in mice, dose of 3 and 10 mg/kg, peak after 30 minutes) is reported as “significant analgesic action”. In the series on SART stressed mouse (oral administration in mice, peak after 30 minutes), the “ED50 value determined from the improving rate at peak of action” value is given as 2.7 mg/kg. Further, the “threshold as compared with the nerve injury control group” value in the series with Chung model rat (intraperitoneal single dose) is on record as “significant increase in the threshold”. The “50% reaction threshold value” in the series on Chung model rat (intraperitoneally 100 μg/kg single dose, 30 minutes after administration) is listed as 9.60 g. Moreover, the “anti-allodynia action to mechanical allodynia” value with Chung model rat (oral administration, dose of 10 mg/kg, peak after 30 minutes) was “significant anti-allodynia action”. Besides, the “ED50 value determined from the improving rate at the peak of the action” value in the series on Chung model rat (oral administration, peak after 30 minutes) is 2.4 mg/kg. Also, the “anti-allodynia action as compared with the nerve injury control group” value in the series on Chung model rat (oral single dose (Compound 12: 3 and 10 mg/kg; Carboxylic acid type A: 10 mg/kg), 15, 30 and 60 minutes after administration, FIG. 1) was “significant anti-allodynia action”. The death entry in the series with mice [1] is on record as “no death case”. In addition, the “Suppressive Rate (%)” value with mice [2] amounted to 33.1%. In addition, in series [3], the “AUC” value was determined as 2356.9 ng·h/mL and the “Cmax” value is 410.8 ng/mL. The “analgesic effect on hyperalgesia” value in the series with rats [4] is listed as “significant analgesic effect”. In addition, in series [5], the “AUC” value amounted to 1339.4 ng·h/mL and the “Cmax” value is on record as 372.5 ng/mL. Moreover, in the series with rats [6], the “analgesic action against pain reaction in the second phase” value is listed as “significant analgesic action”.
